Data on ten compounds can be found in US4372971A, “Heterocyclic prostaglandin type compounds, medicaments containing them and processes for the preparation and use of these heterocyclic compounds and medicaments” (priority 1980, dated 1983).

Each structure is given as a SMILES string. Counter-ions that a name gives are not always drawn. Like-named read-outs stand apart in the source and are kept apart here.

For series [1], the system named is platelet aggregation versus blood pressure. Description: Index of selectivity: platelet aggregation inhibition versus blood pressure lowering (from Tables 1b and 1c). The series is classed as in vivo, rat. The settings on record: for Index of selectivity: in comparison to 5,6-dihydroprostacyclin, calculated from Tables 1b and 1c. From the text:
(§1) Surprising for the compounds according to the invention is the relation of their blood platelet aggregation inhibiting effect to their blood pressure lowering activity.
in comparison to 5,6-dihydroprostacyclin (calculated

In series [2] the test system is ADP induced fall in platelet count. Description: ADP induced fall in platelet count in-vivo in narcotized rats. More on the design: species or system rat. The settings on record: for Relative activity on the ADP induced fall in platelet count in-vivo: relative to 5,6-dihydroprostacyclin = 1.0; for Relative activity on the ADP induced fall in platelet count in-vivo / Maximum effect % Aggregation inhibition: narcotized rats; for Effect in relation to maximum effect, 10 min. after administration (aggregation inhibition) / Effect in relation to maximum effect, 30 min. after administration (aggregation inhibition): maximum effect = 100%. As to the method: as §1
Relative activity on the ADP induced fall
in platelet count in-vivo in narcotized rats (urethane
narcosis; intravenous administration of the test
compounds; the ED50 for 5,6-dihydroprostacyclin under
these experimental conditions is 0.0114 mg/kg):
Duration of the platelet aggregation inhibiting
effect in-vivo (measured with the model of ADP induced
fall in platelet count in narcotized rats on intra-
venous administration of the test compounds)

In a further series the test system is blood pressure. Description: Blood pressure lowering in conscious, spontaneous hypertensive rats. The series is classed as in vivo, rat. The following applies: for Relative blood pressure lowering activity: relative to 5,6-dihydroprostacyclin = 1.0; for Effect in relation to maximum effect, 10 min. after administration (blood pressure lowering) / Effect in relation to maximum effect, 30 min. after administration (blood pressure lowering): maximum effect = 100%.
Excerpt: as §1
Relative blood pressure lowering activity in
conscious, spontaneous hypertensive rats (measurement
via in-dwelling catheter; intravenous administration
of the test compounds; the ED20 for 5,6-dihydroprosta-
cyclin under these experimental conditions is 0.005
Duration of the blood pressure lowering effect
in conscious, spontaneous hypertensive rats (intra-

The next series concerns human thrombocytes. Description: Inhibition of arachidonic acid induced aggregation of human thrombocytes in-vitro. It counts as cell-based. The settings on record: for Relative activity against the aggregation of human thrombocytes induced by arachidonic acid: relative to 5,6-dihydroprostacyclin = 1.0. From the text: Relative activity against the aggregation
of human thrombocytes induced by arachidonic acid
in-vitro (the IC50, i.e., the concentration causing
under the experimental conditions in 50% of the cases
inhibition of the platelet aggregation for 5,6-di-

In a further series the test system is isolated rat colon. The experiment in a line: Contraction inducing activity on isolated rat colon. The settings on record: Prostaglandin F2α = 100%. From the text:
(§2) Relative contraction inducing activities
(b) tests on isolated rat colon

The next series in a line: Chemical stability. The series is classed as physicochemical.
The test system of another series is isolated rat uterus. Description: Contraction inducing activity on isolated rat uterus. The following applies: Prostaglandin F2α = 100%.
Excerpt: as §2
(a) tests on isolated rat uterus

Series [3] deals with smooth muscle of the intestine and uterus. The following applies: cited from earlier work; for Smooth muscle contraction: intestine and uterus.
The subject of series [4] is platelet aggregation versus blood pressure. The following applies: background; cited from earlier work.
Series [5] has as its system ADP induced fall in platelet count. The following applies: background statement; also blood pressure lowering; cited from earlier work.
For series [6] the following is noted: background; cited from earlier work.
Setting [7] is: conscious spontaneous hypertensive rats, intravenous.

Regarding `CCCCC[C@](C)(O)/C=C/[C@@H]1[C@H]2C/C(=C\c3cccc(C(=O)O)c3)O[C@H]2C[C@H]1O` [1e)ii), Sodium salt of [(5E, 13E, 9α, 11α, 15S)-2,3,4-trinor-1,5-inter-m-phenylene-6,9-epoxy-11,15-dihydroxy-15-methyl]-prosta-5,13-dienoic acid], the Index of selectivity in series [1] is reported as 69.3. In addition, in series [2] (intravenous), the “Relative activity on the ADP induced fall in platelet count in-vivo” value (“Relative activity … in platelet count in-vivo” below) worked out at 0.97. Besides, the “Relative blood pressure lowering activity” value in the series on blood pressure (setting [7]) is 0.014. In addition, the “Relative activity against the aggregation of human thrombocytes induced by arachidonic acid” value (shortened to “Relative activity … by arachidonic acid”) in the series with human thrombocytes (in-vitro) was found to be 0.25.
In general, IC50 refers to the concentration that gives 50% inhibition. In the case of `CCCCCC(O)C=CC1C(O)CC2OC(CCCCC(=O)O)CC21` (stereo not shown) [5,6-Dihydroprostacyclin, 5,6-dihydroprostacyclin, reference compound], the “Relative contraction inducing activity” value with isolated rat colon is reported as 23.8%. Moreover, the “Chemical stability” value in the series “Chemical stability” is “chemically stable”. Besides, the “Relative contraction inducing activity” value in the series on isolated rat uterus came to 26.1%. In series [1], the Index of selectivity is given as 1.0. For the same compound, the “Relation of platelet aggregation inhibiting to blood pressure lowering dosage” value in series [1] (rat, in vivo) is reported as “produces both these effects at the same dosage range”. Moreover, in [2] (0.1 mg/kg intravenous), the “Maximum effect % Aggregation inhibition” value came out at 62.4%; the “Effect in relation to maximum effect, 10 min. after administration (aggregation inhibition)” value was 33.8%; the “Effect in relation to maximum effect, 30 min. after administration (aggregation inhibition)” value is listed as 0%. In addition, the “Duration of aggregation inhibiting and blood pressure lowering activities” value in series [2] (also blood pressure lowering) is recorded as “only for a short time”. Further, the “ED50, ADP induced fall in platelet count” value in series [2] (narcotized rats (urethane), intravenous) amounted to 11.4 µg/kg. Besides, the “Relative activity … in platelet count in-vivo” value in series [2] (intravenous) was 1.0. Also, in the series on blood pressure (0.0215 mg/kg intravenous), the “Maximum effect % Blood pressure lowering” value was 28%; the “Effect in relation to maximum effect, 10 min. after administration (blood pressure lowering)” value is recorded as 7.1%; the “Effect in relation to maximum effect, 30 min. after administration (blood pressure lowering)” value amounted to 0%. Besides, the “ED20, blood pressure lowering” value in the series on blood pressure (conscious spontaneous hypertensive rats, intravenous, in-dwelling catheter) stood at 5 µg/kg. Besides, the “Relative blood pressure lowering activity” value in the series on blood pressure (setting [7]) was 1.0. Further, the IC50 in the series with human thrombocytes (human thrombocytes, induced by arachidonic acid, in-vitro, read-out: IC50, inhibition of platelet aggregation) amounted to 180 nM. For the same compound, the “Relative activity … by arachidonic acid” value in the series with human thrombocytes (in-vitro) came to 1.0.
For the compound `CCCCC[C@](C)(O)/C=C/[C@@H]1[C@H]2C/C(=C/c3cccc(C(=O)O)c3)O[C@H]2C[C@H]1O` [Example 1e)i), Sodium salt of [(5Z, 13E, 9α, 11α, 15S)-2,3,4-trinor-1,5-inter-m-phenylene-6,9-epoxy-11,15-dihydroxy-15-methyl]-prosta-5,13-dienoic acid], the “Relative contraction inducing activity” value in the series on isolated rat colon was 0.002%. For the same compound, the “Relative contraction inducing activity” value with isolated rat uterus is listed as 0.58%. Further, the Index of selectivity in series [1] was 13.0. In [2] (1.0 mg/kg intravenous), the “Maximum effect % Aggregation inhibition” value stood at 72.7%; the “Effect in relation to maximum effect, 10 min. after administration (aggregation inhibition)” value is recorded as 69.3%; the “Effect in relation to maximum effect, 30 min. after administration (aggregation inhibition)” value was found to be 41.3%. For the same compound, in [2] (intravenous), the “Relative activity … in platelet count in-vivo” value is 1.3. Also, the “Relative blood pressure lowering activity” value in the series on blood pressure (setting [7]) is on record as 0.1. Further, in the series on human thrombocytes (in-vitro), the “Relative activity … by arachidonic acid” value was 0.86.
For `CCCCC[C@H](O)/C=C/[C@@H]1[C@H]2C/C(=C\c3cccc(C(=O)O)c3)O[C@H]2C[C@H]1O` [Example 2a, Sodium salt of [(5E, 13E, 9α, 11α, 15S)-2,3,4-trinor-1,5-inter-m-phenylene-6,9-epoxy-11,15-dihydroxy]-prosta-5,13-dienoic acid], the “Relative activity … by arachidonic acid” value in the series with human thrombocytes (in-vitro) is reported as 1.2.
Take `CCCCC[C@H](O)/C=C/[C@@H]1[C@H]2C/C(=C/c3cccc(C(=O)O)c3)O[C@H]2C[C@H]1O` [Example 2b, Sodium salt of [(5Z, 13E, 9α, 11α,15S)-2,3,4-trinor-1,5-inter-m-phenylene-6,9-epoxy-11,15-dihydroxy]prosta-5,13-dienoic acid]: in the series with human thrombocytes (in-vitro), the “Relative activity … by arachidonic acid” value was found to be 1.2.
`O=C(O)c1cccc(/C=C2/C[C@@H]3[C@@H](/C=C/[C@@H](O)C4CCCCC4)[C@H](O)C[C@@H]3O2)c1` [Example 3b, Sodium salt of [(5Z, 13E, 9α, 11α, 15S)-2,3,4-trinor-1,5-inter-m-phenylene-6,9-epoxy-11,15-dihydroxy-15-cyclohexyl-16,17,18,19,20-pentanor]-prosta-5,13-dienoic acid]: the Index of selectivity in [1] is recorded as 20.0. In addition, in series [2] (0.1 mg/kg intravenous), the “Maximum effect % Aggregation inhibition” value is given as 72.5%; the “Effect in relation to maximum effect, 10 min. after administration (aggregation inhibition)” value turned out to be 62.6%; the “Effect in relation to maximum effect, 30 min. after administration (aggregation inhibition)” value came out at 66.3%. In addition, in series [2] (in-vivo (Table 1b)), the “Activity compared with 5,6-dihydroprostacyclin, in-vivo” value is given as “several times more active than 5,6-dihydroprostacyclin”. Also, the “Relative activity … in platelet count in-vivo” value in series [2] (intravenous) worked out at 5.0. Besides, in the series on blood pressure (0.1 mg/kg intravenous), the “Maximum effect % Blood pressure lowering” value was 23%; the “Effect in relation to maximum effect, 10 min. after administration (blood pressure lowering)” value is 87.0%; the “Effect in relation to maximum effect, 30 min. after administration (blood pressure lowering)” value stood at 39.1%. For the same compound, the “Relative blood pressure lowering activity” value with blood pressure (setting [7]) amounted to 0.25. The “Activity compared with 5,6-dihydroprostacyclin, in-vitro” value in the series with human thrombocytes (in-vitro (Table 1a)) is recorded as “several times more active than 5,6-dihydroprostacyclin”. Also, the “Relative activity … by arachidonic acid” value in the series on human thrombocytes (in-vitro) turned out to be 18.0.
On to `CCCCC(CC)[C@H](O)/C=C/[C@@H]1[C@H]2C/C(=C/c3cccc(C(=O)O)c3)O[C@H]2C[C@H]1O` (stereo partly drawn) [Example 4b, Sodium salt of [(5Z, 13E, 9α, 11α, 15S, 16RS)-2,3,4-trinor-1,5-inter-m-phenylene-6,9-epoxy-11,15-dihydroxy-16-ethyl]-prosta-5,13-dienoic acid], for which, in series [1], the Index of selectivity is reported as 16.7. In [2] (1.0 mg/kg intravenous), the “Maximum effect % Aggregation inhibition” value came to 66.8%; the “Effect in relation to maximum effect, 10 min. after administration (aggregation inhibition)” value is recorded as 45.4%; the “Effect in relation to maximum effect, 30 min. after administration (aggregation inhibition)” value amounted to 24.5%. The “Relative activity … in platelet count in-vivo” value in series [2] (intravenous) amounted to 0.2. Moreover, in the series with blood pressure (1.0 mg/kg intravenous), the “Maximum effect % Blood pressure lowering” value stood at 22%; the “Effect in relation to maximum effect, 10 min. after administration (blood pressure lowering)” value worked out at 90.9%; the “Effect in relation to maximum effect, 30 min. after administration (blood pressure lowering)” value is 68.2%. Also, in the series with blood pressure (setting [7]), the “Relative blood pressure lowering activity” value stood at 0.012. Besides, the “Relative activity … by arachidonic acid” value in the series with human thrombocytes (in-vitro) is listed as 0.31.
On to `CCCCC[C@H](O)/C=C/[C@H]1[C@H](O)CC(=O)[C@@H]1C/C=C\CCCC(=O)O` [PGE2], for which, in series [3] (administered in-vivo), the “Side effects in-vivo” value is “may induce diarrhea and abortion”. Further, the “Smooth muscle contraction” value in series [3] was “cause contraction of the smooth muscle of the intestine and uterus”.
Turning to `CCCCC[C@H](O)/C=C/[C@@H]1[C@H]2C/C(=C/CCCC(=O)O)O[C@H]2C[C@H]1O` [Prostacyclin, prostacyclin], the “Relation of platelet aggregation inhibiting to blood pressure lowering dosage” value in series [4] is reported as “exhibited at generally the same dosage level”. In addition, in series [5], the “Duration of aggregation inhibiting and blood pressure lowering activities” value is “only for a short time”. Further, the “Stability” value in series [6] was “not as stable as would be desirable”.
As to `CCCCC[C@H](O)/C=C/[C@@H]1[C@@H](C/C=C\CCCC(=O)O)[C@@H](O)C[C@H]1O` [Prostaglandin F2α], in series [3], the “Side effects in-vivo” value is “may induce diarrhea and abortion”; the “Smooth muscle contraction” value is “cause contraction of the smooth muscle of the intestine and uterus”. Further, the “Relative contraction inducing activity” value with isolated rat colon was found to be 100%. Further, in the series with isolated rat uterus, the “Relative contraction inducing activity” value came to 100%.
